Assay: solvent given as SMILES

SMILES: CCOC(=O)CN1C(=O)C2=C(c3ccc(C#N)cc3)N(CC(=O)OCC)C(=O)C2=C1c1ccccc1
- emission maximum (in CC#N): 538 nm
- emission maximum (in CS(C)=O): 547 nm
- emission maximum (in Cc1ccccc1): 544 nm

SMILES: CCCCCCCCCCCCN1C(=O)c2c(c3ccc4cc(-c5cccs5)c(OC)cc4c3c3c2ccc2cc(-c4cccs4)c(OC)cc23)C1=O
- emission maximum (in ClCCl): 545 nm

SMILES: CCOC(=O)c1ccccc1-c1c2ccc(=[N+](CC)CC)cc-2oc2c1c(=O)oc1cc(N(CC)CC)ccc12
- emission maximum (in CCO): 642 nm
- emission maximum (in ClC(Cl)Cl): 640 nm
- emission maximum (in O): 652 nm

SMILES: CCC1=C(C)C2C(c3ccc(-c4ccc(-c5nc6c7ccccc7c7ccccc7c6n5-c5ccc(C(C)(C)C)cc5)cc4)cc3)c3c(C)c(CC)c(C)n3[B-](F)(F)[N+]2=C1C (centres undefined)
- emission maximum (in ClC(Cl)Cl): 556 nm

SMILES: CCOC(=O)c1c(-c2cc3c(ccc4ccccc43)oc2=O)nn(-c2cccc(C)c2)c1C(=O)OCC
- emission maximum (in ClCCl): 440 nm

SMILES: CCCCC(CC)Cn1c2cc(C#N)ccc2c2cc(-c3ccc(N(c4ccccc4)c4ccccc4)cc3)c(C#N)cc21 (centres undefined)
- emission maximum (in C1CCCCC1): 444 nm
- emission maximum (in C1CCOC1): 507 nm
- emission maximum (in CC#N): 548 nm
- emission maximum (in CCCCOCCCC): 464 nm
- emission maximum (in CCN(CC)CC): 461.69 nm
- emission maximum (in CCOC(C)=O): 463 nm
- emission maximum (in CCOCC): 501 nm
- emission maximum (in CN(C)C=O): 543 nm
- emission maximum (in Cc1ccccc1): 474 nm
- emission maximum (in ClC=C(Cl)Cl): 477 nm
- emission maximum (in ClCCl): 517 nm

SMILES: CC(C)c1ccc(/C=C/c2nc3ccc(N(C)C)cc3s2)cc1
- emission maximum (in C1CCCCC1): 454 nm
- emission maximum (in CC#N): 517 nm

SMILES: O=C(c1ccc2c3c(cccc13)-c1cccc3c1C2CC=C3)c1c(CCc2ccccc2)c2ccc3cccc4c5cccc6ccc1c(c65)c2c34 (centres undefined)
- emission maximum (in ClCCl): 527 nm

SMILES: O=S(=O)([O-])c1cc(S(=O)(=O)Cl)ccc1C1=c2cc3c4c(c2Oc2c1cc1c5c2CCCN5CCC1)CCC[N+]=4CCC3
- emission maximum (in O): 615 nm

SMILES: CCCCC1(CCCC)c2ccccc2-c2ccc(-c3c4c(nc5ccccc35)-c3cc5c(cc3CC4)-c3nc4ccccc4c(-c4ccc6c(c4)C(CCCC)(CCCC)c4ccccc4-6)c3CC5)cc21
- emission maximum (in ClC(Cl)Cl): 385 nm

SMILES: CC(C)(C)c1ccc2c(c1)c1cc(C(C)(C)C)ccc1n2-c1cccc(C(=O)c2cccc(-n3c4ccc(C(C)(C)C)cc4c4cc(C(C)(C)C)ccc43)n2)n1
- emission maximum (in C1CCOC1): 378.66 nm
- emission maximum (in Cc1ccccc1): 381.64 nm
- emission maximum (in ClCCl): 383.6 nm

SMILES: COc1cccc(OC)c1-c1c2ccc(=[N+]3CCNCC3)cc-2oc2cc(N3CCNCC3)ccc12
- emission maximum (in CCO): 582 nm
- emission maximum (in O): 568 nm

SMILES: CC1=[N+]2C(=C(c3c4ccccc4c(-c4ccccc4)c4ccccc34)c3ccc(C)n3[B-]2(F)F)C=C1
- emission maximum (in CC#N): 536 nm
- emission maximum (in CCCCCC): 527 nm
- emission maximum (in CCO): 528 nm
- emission maximum (in CN(C)C=O): 533 nm
- emission maximum (in Cc1ccccc1): 532 nm
- emission maximum (in ClCCl): 533 nm

SMILES: CC1(C)CC(=O)c2ccccc2N1
- emission maximum (in CC#N): 439 nm
- emission maximum (in CCO): 483 nm

SMILES: COC1=[N+]2C(=C(c3ccccc3)c3ccc(OC)n3[B-]2(F)F)C=C1SC#N
- emission maximum (in CC#N): 539 nm
- emission maximum (in CCCCCC): 542 nm
- emission maximum (in CCOC(C)=O): 543 nm
- emission maximum (in CO): 540 nm
- emission maximum (in ClCCl): 543 nm

SMILES: Cc1c(COC(=O)Cc2c[nH]c3ccccc23)n2c(OCC(=O)Cc3c[nH]c4ccccc34)c(C)c(=O)n2c1=O
- emission maximum (in CCO): 452 nm

SMILES: CN(C)c1ccc(C2=[N+]3C(=Nc4c(-c5ccc(OCCCCS(=O)(=O)[O-])cc5)cc(-c5ccc(N(C)C)cc5)n4[B-]3(F)F)C(c3ccc(OCCCCS(=O)(=O)[O-])cc3)=C2)cc1
- emission maximum (in CS(C)=O): 826 nm

SMILES: CCN(CC)c1ccc(/C=N/c2cc3ccccc3cc2/N=C/c2ccc(N(CC)CC)cc2O)c(O)c1
- emission maximum (in CC#N): 512 nm
- emission maximum (in CN(C)C=O): 516 nm
- emission maximum (in ClCCl): 539 nm

SMILES: CN(C)c1ccc2nc(-c3ccccc3)sc2c1Cl
- emission maximum (in C1CCCCC1): 389 nm
- emission maximum (in CC#N): 466 nm
- emission maximum (in CC(C)O): 477.17 nm
- emission maximum (in CO): 472 nm
- emission maximum (in CS(C)=O): 465.05 nm
- emission maximum (in ClC(Cl)Cl): 437 nm
- emission maximum (in c1ccccc1): 425.86 nm

SMILES: COc1ccc(-c2cc(N3CCCCC3)c(C#N)c3c2-c2cccc4cccc-3c24)cc1
- emission maximum (in O): 552 nm

SMILES: NNC(=O)c1ccc(/C=C/c2ccc(C(=O)NN)cc2)cc1
- emission maximum (in CN(C)C=O): 395 nm

SMILES: CN(C)c1ccc2c(c1)[Si](C)(C)C1=CC(=[N+](C)C)C=CC1=C2C#Cc1ccccc1
- emission maximum (in CO): 738 nm
- emission maximum (in O): 736 nm

SMILES: Oc1cccc2ccccc12
- emission maximum (in C1CCCCC1): 344.23 nm

SMILES: C1=Cc2ccccc2C(=Cc2ccc(C=C3c4ccccc4-c4ccccc43)cc2)c2ccccc21
- emission maximum (in C1CCOC1): 444 nm

SMILES: COC(=O)C(CCCCNC(=O)CCNc1cccc2ccccc12)NC(C)=O (centres undefined)
- emission maximum (in CCO): 417 nm

SMILES: CCCCCCCCCCCCSc1cc2c3c(ccc4c5c(SCCCCCCCCCCCC)cc6c7c(ccc(c1c34)c75)C(=O)N(C1CCCCC1)C6=O)C(=O)N(C1CCCCC1)C2=O
- emission maximum (in ClC(Cl)Cl): 655 nm

SMILES: CCCCCCN1C(=O)c2cccc3c(-c4scc5c4OCCO5)ccc(c23)C1=O
- emission maximum (in ClC(Cl)Cl): 484 nm
